{"source": "paper PMC4279406", "about": "“Simultaneous targeting of PI3Kδ and a PI3Kδ-dependent MEK1/2-Erk1/2 pathway for therapy in pediatric B-cell acute lymphoblastic leukemia” (Oncotarget, 2014)", "key": {"[1]": {"system": "panel of 61 protein kinases", "experiment": "Panel of 61 protein kinases", "assay_type": "biochemical, human", "settings": "10 μM", "description": "Utilizing the crystal structure of PI3Kδ, we designed and synthesized a series of compounds in an effort to discover new potent and selective PI3Kδ inhibitors, which bind to PI3Kδ differently from CAL-101. […] The benzimidazole group of X-370 extends into the affinity pocket, where its nitrogen acts as a hydrogen bond acceptor for the primary amine of Lys779. The difluoromethyl group of X-370 points toward Pro758 in the hydrophobic affinity pocket. Instead of wedging between Met752 and Trp760, a binding mode utilized by CAL-101 to generate specificity against PI3Kδ (Figure S1), the pyrrole group of X-370 presses tightly against Trp760. These specific interactions of X-370 with p110δ confer a selective and potent inhibition of PI3Kδ. […]\nIn vitro kinase profile assays were analyzed by the Kinase Profiler Service (Millipore, United Kingdom) following its guidelines. […] The PI3K kinase activity was determined in the increasing concentration of ATP and X-370 with PI3-Kinase HTRF™ Assay kit (Millipore) as described previously. […]\nCell lysates were probed with indicated antibodies. The IC50 values were calculated based on relative band intensity measured with ImageQuant™ TL (GE Healthcare Life Sciences, Piscataway, NJ). […]"}, "[2]": {"system": "PI3KC2α, PI3KC2γ, PIP4K2α, PIP5K1α and PIP5K1γ", "experiment": "Selectivity against other lipid kinases", "assay_type": "biochemical", "description": "(§1) Utilizing the crystal structure of PI3Kδ, we designed and synthesized a series of compounds in an effort to discover new potent and selective PI3Kδ inhibitors, which bind to PI3Kδ differently from CAL-101. […] The benzimidazole group of X-370 extends into the affinity pocket, where its nitrogen acts as a hydrogen bond acceptor for the primary amine of Lys779. The difluoromethyl group of X-370 points toward Pro758 in the hydrophobic affinity pocket. Instead of wedging between Met752 and Trp760, a binding mode utilized by CAL-101 to generate specificity against PI3Kδ (Figure S1), the pyrrole group of X-370 presses tightly against Trp760. These specific interactions of X-370 with p110δ confer a selective and potent inhibition of PI3Kδ. As expected, X-370 inhibited the kinase activity of PI3Kδ in an ATP-competitive manner, with IC50 increasing in concert with ATP levels (Figure 1C), confirming the binding of X-370 in the ATP pocket. […] More than 1000-fold selectivity was seen against other lipid kinases tested including PI3KC2α, PI3KC2γ, PIP4K2α, PIP5K1α and PIP5K1γ. […]\nFigure 1 Structure of X-370 and its inhibitory activity against lipid kinases (A) Chemical structure of X-370. […] Relative kinase activity in the presence of 10 μM X-370 compared to DMSO control was measured for the rest of lipid kinases. […]"}, "[3]": {"system": "human B cell leukemia cells", "experiment": "Proliferation of a panel of human B cell leukemia cells (CCK-8)", "assay_type": "cell-based", "settings": "72 h, range over the cell panel, read-out: IC50s, proliferation", "description": "Cell viability was assessed using Cell Counting Kit (CCK-8, Dojindo, Japan) following the manufacturer's protocol and OD values were measured with a Spectramax M5 plate reader (Molecular Devices, Sunnyvale, CA)[45].\nFigure S3: X-370 inhibited proliferation of human B cell leukemia cells. Cells were seeded in 96 -well plate and treated with serial diluted X-370 for 72 h. cell viability was then assessed by CCK-8 reagent and inhibitory rate was calculated. […]\nantiproliferative activity of X-370 against these cells. […]"}, "PI3Kδ": {"target": "PI3Kδ (Homo sapiens, UniProt O00329)", "sequence (O00329 whole entry)": "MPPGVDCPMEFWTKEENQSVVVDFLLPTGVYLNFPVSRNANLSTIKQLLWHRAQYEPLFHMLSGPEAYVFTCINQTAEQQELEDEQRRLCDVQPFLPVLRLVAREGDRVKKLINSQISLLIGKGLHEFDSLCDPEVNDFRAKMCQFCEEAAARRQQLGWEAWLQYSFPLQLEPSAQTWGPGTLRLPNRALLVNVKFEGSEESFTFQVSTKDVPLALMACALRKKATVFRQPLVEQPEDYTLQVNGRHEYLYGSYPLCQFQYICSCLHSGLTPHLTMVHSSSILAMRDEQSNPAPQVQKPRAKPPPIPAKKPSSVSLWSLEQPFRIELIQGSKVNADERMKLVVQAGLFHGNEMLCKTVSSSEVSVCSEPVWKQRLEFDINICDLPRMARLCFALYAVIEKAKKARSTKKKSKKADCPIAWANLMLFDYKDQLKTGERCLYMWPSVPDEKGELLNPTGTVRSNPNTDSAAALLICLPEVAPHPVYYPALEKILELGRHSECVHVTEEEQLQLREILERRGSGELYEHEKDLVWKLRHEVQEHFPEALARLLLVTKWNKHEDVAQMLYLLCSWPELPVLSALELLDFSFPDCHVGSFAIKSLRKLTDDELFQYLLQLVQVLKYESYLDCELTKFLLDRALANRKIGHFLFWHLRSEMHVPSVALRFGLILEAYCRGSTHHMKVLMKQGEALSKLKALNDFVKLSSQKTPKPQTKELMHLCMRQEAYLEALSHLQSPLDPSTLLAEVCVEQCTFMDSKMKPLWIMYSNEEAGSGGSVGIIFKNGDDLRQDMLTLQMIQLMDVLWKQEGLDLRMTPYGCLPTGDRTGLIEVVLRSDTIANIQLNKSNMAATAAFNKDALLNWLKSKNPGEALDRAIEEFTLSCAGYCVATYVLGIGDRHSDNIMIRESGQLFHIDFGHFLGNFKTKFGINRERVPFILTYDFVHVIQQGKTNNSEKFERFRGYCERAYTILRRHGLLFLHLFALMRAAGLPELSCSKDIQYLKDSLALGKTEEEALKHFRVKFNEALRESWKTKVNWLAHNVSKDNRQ", "sequence (P27986 whole entry partner)": "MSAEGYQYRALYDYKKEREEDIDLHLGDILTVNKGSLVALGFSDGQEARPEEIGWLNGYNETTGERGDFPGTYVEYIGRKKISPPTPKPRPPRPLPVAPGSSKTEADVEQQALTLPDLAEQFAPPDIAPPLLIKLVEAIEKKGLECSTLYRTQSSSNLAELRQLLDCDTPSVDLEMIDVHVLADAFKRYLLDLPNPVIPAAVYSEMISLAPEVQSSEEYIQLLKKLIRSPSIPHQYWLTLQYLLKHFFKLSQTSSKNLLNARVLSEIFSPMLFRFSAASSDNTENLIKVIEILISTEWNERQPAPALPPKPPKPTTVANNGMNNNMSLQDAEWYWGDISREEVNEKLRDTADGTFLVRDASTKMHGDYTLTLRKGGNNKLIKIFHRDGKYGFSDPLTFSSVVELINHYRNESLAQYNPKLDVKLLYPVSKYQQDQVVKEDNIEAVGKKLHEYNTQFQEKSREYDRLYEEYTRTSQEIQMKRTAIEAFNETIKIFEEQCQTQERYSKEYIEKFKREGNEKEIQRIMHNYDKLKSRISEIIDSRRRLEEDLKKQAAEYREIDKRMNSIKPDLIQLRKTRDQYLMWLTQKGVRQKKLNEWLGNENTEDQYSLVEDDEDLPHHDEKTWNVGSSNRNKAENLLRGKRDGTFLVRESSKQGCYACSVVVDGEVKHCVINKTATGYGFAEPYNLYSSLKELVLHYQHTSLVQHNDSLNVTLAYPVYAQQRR", "experiment": "PI3-Kinase HTRF assay with increasing ATP", "assay_type": "biochemical", "design": "GST; made in house; host or cells: Sf9 insect cells", "settings": "IC50 increasing in concert with ATP levels", "description": "as §1\nIn vitro kinase profile assays were analyzed by the Kinase Profiler Service (Millipore, United Kingdom) following its guidelines. […] The PI3K kinase activity was determined in the increasing concentration of ATP and X-370 with PI3-Kinase HTRF™ Assay kit (Millipore) as described previously."}}, "note": "pIC50: −log10 of the molar value.", "data": [{"smiles": "O=C(N1CCCC1)N1CCC(n2cnc3c(-n4c(C(F)F)nc5ccccc54)nc(N4CCOCC4)nc32)CC1", "note": "[X-370]", "values": [{"measurement": "activity against all kinases of the panel", "setting": "[1]", "value": "little activity"}, {"measurement": "selectivity for PI3Kδ against other lipid kinases", "setting": "[2]", "value": "More than 1000 fold"}, {"measurement": "pIC50", "setting": "[3]", "value": "5.20 to 7.40"}, {"measurement": "manner of inhibition of PI3Kδ kinase activity", "setting": "PI3Kδ", "value": "ATP-competitive"}]}]}
